{"source": "patent US20240327800A1", "about": "“HIGH THROUGHPUT LOCALIZED PASSIVE DIFFUSION DEVICE FOR PATTERNING ORGANOIDS” (University of Massachusetts, priority 2023, published 2024)", "tested_on": "hESCs (H9) derived forebrain organoid", "test": "Dorsal-ventral patterning of forebrain organoids with a gradient of Shh agonist (immunostaining)", "format": "cell-based, human", "method": "The cells were sub-passaged every 3 to 4 days by 80% to 90% confluence. Before cell culturing, the device 500 was incubated in 2% pluronic for one hour, rinsed with 1×DPBS three times, and dried out before adding the gelatin-transglutaminase mixture to layer 3. Before cell seeding, the medium and medium chambers were incubated at room temperature with E8 basal for up to 24 hrs. The gelatin in the microwells was aspirated after being soaked in the E8 basal before cell seeding.\nCells were seeded using E8 medium supplemented with 10 uM Rock inhibitor (Y27). 100, 000 cells suspended in 5 μl medium were then pipetted into each microwell. Then, the device 500 was centrifuged at 200 g for 2 mins. Then, another 1 ml and 500 μl of medium were added into the medium chamber and the morphogen chamber, respectively. The device 500 was placed into a 37 C.° incubator overnight to generate a cell aggregate. […] It was observed that the EBs were immobilized by growing them around the sutures. To grow EBs around the sutures, a high density of hESCs was seeded directly into the microwell. The size of the EB spheroid at day 8, around 500 μm, was consistent with the diameter of the EB at day 1. The size of EB spheroid could be grown by changing the E8 medium and adding 1% PS daily during continued culturing.\nEssential 6 (E6) medium supplemented with 1% PS, 5 μM dorsomorphin (DM), and 10 μM SB-431542 for both medium and morphogen chambers for six days for dual SMAD inhibition. […] To generate a D-V patterned organoid, 5 μM of purmorphamine and 5 μM of IWP-2 were supplemented to the basal medium in the morphogen chamber for five days between day 14 to day 30. To generate cortical organoids, the basal medium was used for both the medium and the morphogen chamber. To generate subpallial organoids, purmorphamine and IWP-2 supplement medium were used for both chambers. The medium was changed daily until day 30.\nThe organoids were then rinsed with 1×DPBS two times for 10 mins, then fixed by incubating in 4% paraformaldehyde (Electron Microscopy Sciences) at 4 C.° overnight. […]"}
{"molecule": "c1ccc2c(Oc3nc(Nc4ccc(N5CCOCC5)cc4)c4ncn(C5CCCCC5)c4n3)cccc2c1", "note": "[purmorphamine]", "values": [{"measurement": "D-V patterning", "setting": "Uniform Pur control: purmorphamine in both medium chamber and morphogen chamber (no gradient)", "value": "No D-V patterning was established"}, {"measurement": "NKX2.1 marker expression (ventral fate differentiation)", "setting": "gradient group, 5 μM purmorphamine in morphogen chamber (with 5 μM IWP-2), five continuous days between day 14 and day 30, bottom half of organoid", "value": "higher expression level of NKX2.1 makers was established at the bottom half of the organoid"}, {"measurement": "PAX6 expression (dorsal fate differentiation)", "setting": "gradient group, 5 μM purmorphamine in morphogen chamber, five continuous days between day 14 and day 30, top half of organoid", "value": "dominant expression of PAX6 was observed"}]}
